The source of these data is patent publication US10980739B2, “Treatment of a disease of the gastrointestinal tract with a chemokine/chemokine receptor inhibitor” (Progenity, Inc., priority 2016, dated 2021).

A short description of this data set: Tacrolimus tissue pharmacokinetics, oral versus intra-cecal ingestible device delivery. Type of data set: in vivo, Yorkshire-Cross farm swine. As to conditions: swine, intra-cecal ingestible device vs oral, 12 hours post-dose; FIG. 76. Here is the method: No further randomization procedure was employed.
Animals in Group 1 received an ingestible device containing 0.8 mL of vehicle solution (80% alcohol, 20% HCO-60). Animals in Group 2 received orally […] liquid formulation of tacrolimus at 4 mg/0.8 mL per animal (Prograf: 5 mg/mL). Animals in Group 3 received intra-cecally an ingestible device containing tacrolimus at 1 mg in 0.8 mL per ingestible device. Animals in Group 4 received intra-cecally an ingestible device containing tacrolimus at 2 mg in 0.8 mL per ingestible device. Animals in Group 5 received intra-cecally an ingestible device containing tacrolimus at 4 mg in 0.8 mL per ingestible device. […]
Approximately 200˜400 mg of rectal content were collected, if available, with a fecal swab (Copan Diagnostics Nylon Flocked Dry Swabs, 502CS01). The fecal swab was pre-weighed and weighed after collection in the collection tube (Sterile Tube and Cap No Media, PFPM913S), and the sample weight was recorded. […]
For tissue necropsy, small intestine fluid and cecal fluid were collected separately from all the animals into two separate square plastic bottles, and stored at −20° C. The length and diameter of the cecum and the colon was measured from one animal in each group and recorded for reference. […] All samples were weighed, and the tissue sample weights were recorded. […]

`C=CC[C@@H]1/C=C(\C)C[C@H](C)C[C@H](OC)[C@H]2O[C@@](O)(C(=O)C(=O)N3CCCC[C@H]3C(=O)O[C@H](/C(C)=C/[C@@H]3CC[C@@H](O)[C@H](OC)C3)[C@H](C)[C@@H](O)CC1=O)[C@H](C)C[C@@H]2OC` [tacrolimus]: the “mean concentration of tacrolimus in the cecum tissue and the proximate colon tissue” value is reported as “higher”.
